In patent publication US8846951B2 (AbbVie Inc., priority 2009, dated 2014):
Read-outs that look alike come from different tables or passages of the source.

Key:
[1] = target: T1, 5HT2C receptors (Homo sapiens, UniProt P28335); test: Human 5-HT2C functional high throughput screening assay in CHO-K1 cells (calcium flux); assay type: cell-based; parameters: expressed in transfected cells; host or cells: CHO-K1 cells; details: for EC50: CHO-K1 cells, calcium flux; for Emax: 5-HT2C, maximum functional response as percentage relative to the effect of serotonin
T1 sequence (P28335 33-458): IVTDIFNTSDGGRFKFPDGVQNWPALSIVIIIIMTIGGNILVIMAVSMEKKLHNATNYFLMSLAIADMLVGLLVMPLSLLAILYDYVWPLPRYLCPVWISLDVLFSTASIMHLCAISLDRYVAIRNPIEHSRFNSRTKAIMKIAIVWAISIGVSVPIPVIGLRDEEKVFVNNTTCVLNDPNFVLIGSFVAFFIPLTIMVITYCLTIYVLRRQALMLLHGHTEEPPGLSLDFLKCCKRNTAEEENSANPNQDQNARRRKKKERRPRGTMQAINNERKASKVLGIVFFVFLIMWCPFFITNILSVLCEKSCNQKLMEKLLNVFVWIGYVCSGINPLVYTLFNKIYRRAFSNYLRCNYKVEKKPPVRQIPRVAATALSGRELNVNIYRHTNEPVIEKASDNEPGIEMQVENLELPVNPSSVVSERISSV
How it was run: (§1)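 FLIPR calcium readout, ex 480/em 530 nm, 25 °C, 3 min post-addition; agonist response normalized to serotonin, 4-parameter fit → EC50, Emax (% serotonin). Cells: frozen CHO-K1 stable lines, serum-free overnight, Ca4 dye + 2.5 mM probenecid, 60 min RT dark.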

[2] = target: T2, 5HT2B receptors (Homo sapiens, UniProt P41595); test: Human 5-HT2B functional high throughput screening assay in CHO-K1 cells (calcium flux); assay type: cell-based; details: for EC50: CHO-K1 cells, calcium flux
T2 construct: expressed in transfected cells; host or cells: CHO-K1 cells
T2 sequence (P41595 whole entry): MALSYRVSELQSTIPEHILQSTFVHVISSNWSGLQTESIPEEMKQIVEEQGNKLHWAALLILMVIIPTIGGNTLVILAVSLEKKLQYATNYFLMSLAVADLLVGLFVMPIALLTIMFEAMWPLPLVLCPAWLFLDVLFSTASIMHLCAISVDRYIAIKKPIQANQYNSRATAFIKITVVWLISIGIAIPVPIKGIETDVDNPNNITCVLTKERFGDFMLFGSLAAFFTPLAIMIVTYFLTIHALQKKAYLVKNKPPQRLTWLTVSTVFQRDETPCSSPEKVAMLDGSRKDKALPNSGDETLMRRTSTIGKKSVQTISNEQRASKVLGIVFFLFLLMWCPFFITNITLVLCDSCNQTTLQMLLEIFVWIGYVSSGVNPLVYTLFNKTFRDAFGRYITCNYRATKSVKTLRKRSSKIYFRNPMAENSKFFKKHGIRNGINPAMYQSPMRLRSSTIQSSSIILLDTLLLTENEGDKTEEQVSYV
How it was run: as §1

[3] = target: T1, 5HT2C receptors; test: Human 5-HT2C functional assay in 1321N1 cells (intracellular calcium, FLIPR); assay type: cell-based; parameters: expressed in transfected cells; host or cells: 1321N1 cells; details: 5-HT2c agonist activity, maximum calcium response
Procedure: (ii) Human 5-HT2C Functional Assay in 1321N1 Cells
Functional activity was determined by testing the effect of the compounds on intracellular calcium levels in 1321N1 cells stably transfected with the human 5-HT2C receptor. Cells were seeded into 96-well plates at 50,000 cells/well and grown overnight in tissue culture medium (DMEM with Glutamax I (Invitrogen), containing 10% dFCS, 50 μg/mL Gentamicin, 400 μg/mL Geneticin) at 37° C. and 7% CO2. Growth medium was replaced by medium without dFCS for overnight incubation. Cells were loaded with a fluorescent calcium-sensitive dye in the presence of 1% probenicid according to the manufacturer's protocol (Fluo4 AM, Molecular Devices). Serial compound dilutions (final concentrations 10^−10 to 10^−5 M) were added to the cells either alone or in the presence of serotonin (10^−9 M) and the maximum calcium response was determined using a FLIPR instrument (Molecular Devices). Concentration-response curves were fitted using a four-parameter logistic equation (GraphPad Prism). The concentration at which the compound exerts half its maximal effect is named the ‘effective concentration 50’ or ‘EC50’ and is listed in Table 2.

[4] = target: T3, human serotonin 5-HT2c receptor (Homo sapiens, UniProt P28335); test: Human 5-HT2C receptor radioligand binding assay (agonist site, [125I]DOI); details: 5-HT2c agonist site; transfected CHO cell membranes; 0.2 nM [125I](±)DOI
T3 construct: expressed in transfected cells; host or cells: CHO cells (membrane homogenates)
T3 sequence (P28335 33-458): T1 sequence (P28335 33-458)
Procedure: (i) Human 5-HT2C Receptor Radioligand Binding Assay
Affinity of compounds for the agonist site of the […], receptor in transfected CHO cells was determined in a radioligand binding assay essentially as described by Bryant, H. U., et al., Life Sciences (1996) 59(15), 1259-1268.

[5] = 5-HT2C agonist activity, read-out: EC50
[6] = 5-HT2B agonist activity, read-out: EC50
[7] = 5-HT2B, maximum functional response as percentage relative to the effect of serotonin

| Compound | EC50 [1, 5] | Emax ([1]; CHO-K1, read-out: Emax) | EC50 [2, 6] | Emax ([2]; CHO-K1, 5-HT2B, maximum functional response as percentage relative to the effect of serotonin, read-out: Emax) | Emax [2, 7] | EC50 [3] | Ki [4] | Emax ([1]; CHO-K1) | EC50 ([1]; EC50, 5-HT2C agonist activity) | EC50 ([2]; EC50, 5-HT2B agonist activity) | Emax ([2]; CHO-K1) | Emax [1] |
| --- | --- | --- | --- | --- | --- | --- | --- | --- | --- | --- | --- | --- |
| O=C1NC[C@@H]2CN(Cc3ccccc3)C[C@H]2c2cc(Cl)ccc21 (relative stereo) [Example 51, Trans-2-benzyl-9-chloro-1,2,3,3a,4,5-hexahydrobenzo[e]pyrrolo[3,4-c]azepin-6(10bH)-one] |  |  |  |  |  | 84 nM | 110 nM |  |  |  |  |  |
| O=C1NC[C@@H]2CNC[C@H]2c2cc(Cl)ccc21 (relative stereo) [Example 52, Trans-9-chloro-1,2,3,3a,4,5-hexahydrobenzo[e]pyrrolo[3,4-c]azepin-6(10bH)-one] |  |  |  |  |  | 158 nM | 860 nM |  |  |  |  |  |
| O=C1NC[C@@H]2CN(Cc3ccccc3)C[C@H]2c2ccc(F)cc21 (relative stereo) [Example 55, Trans-2-benzyl-8-fluoro-1,2,3,3a,4,5-hexahydrobenzo[e]pyrrolo[3,4-c]azepin-6(10bH)-one] |  |  |  |  | inactive | 10.6 nM | 9.1 nM | 120% | 40 nM | > 10000 nM |  |  |
| O=C1NC[C@@H]2CN(Cc3ccccc3)C[C@H]2c2cc(Cl)c(Cl)cc21 (relative stereo) [Example 56, Trans-2-benzyl-8,9-dichloro-1,2,3,3a,4,5-hexahydrobenzo[c]pyrrolo[3,4-e]azepin-6(10bH)-one] |  |  |  |  |  | 15.3 nM | 70 nM |  |  |  |  |  |
| O=C1NC[C@@H]2CNC[C@H]2c2ccc(F)cc21 (relative stereo) [Example 57, Trans-8-fluoro-1,2,3,3a,4,5-hexahydrobenzo[c]pyrrolo[3,4-e]azepin-6(10bH)-one] |  |  |  |  |  | 7.67 nM | 26 nM | 120% | 6 nM | 700 nM | 100% |  |
| O=C1NC[C@@H]2CN(Cc3ccccc3)C[C@@H]2c2c(F)cccc21 (relative stereo) [Example 66, Cis-2-benzyl-10-fluoro-1,2,3,3a,4,5-hexahydrobenzo[c]pyrrolo[3,4-e]azepin-6(10bH)-one] |  |  |  |  |  | 179 nM | 290 nM |  |  |  |  |  |
| CN1C[C@H]2CNC(=O)c3ccccc3[C@@H]2C1 (relative stereo) [Example 69, Trans-2-methyl-1,2,3,3a,4,5-hexahydrobenzo[c]pyrrolo[3,4-e]azepin-6(10bH)-one] |  |  |  |  |  | 8.78 nM | 48 nM | 120% | 9 nM | 500 nM | 70% |  |
| O=C1NC[C@@H]2CN(Cc3cc(Cl)ccc3F)C[C@H]2c2ccccc21 (relative stereo) [Example 70, Trans-2-(5-chloro-2-fluorobenzyl)-1,2,3,3a,4,5-hexahydrobenzo[e]pyrrolo[3,4-c]azepin-6(10bH)-one] |  |  |  |  |  | 1.76 nM | 36 nM |  |  |  |  |  |
| O=C1NC[C@@H]2CNC[C@H]2c2cccc(F)c21 (single isomer, unassigned) [Example 60, Trans-7-fluoro-1,2,3,3a,4,5-hexahydrobenzo[c]pyrrolo[3,4-e]azepin-6(10bH)-one] |  |  |  |  |  | 7.65 nM | 44 nM | 120% | 7 nM | 900 nM | 80% |  |
| O=C1NC[C@H]2CN(Cc3ccccc3)C[C@@H]2c2ccc(F)cc21 [Example 61, (3aS,10bS)-2-Benzyl-8-fluoro-1,2,3,3a,4,5-hexahydrobenzo[e]pyrrolo[3,4-e]azepin-6(10bH)-one] |  |  |  |  |  | 3.2 nM | 6.4 nM | > 120% | 5.82 nM | 200 nM | 10% |  |
| (3aR,10bS)-1,2,3,3a,4,5-Hexahydrobenzo[e]pyrrolo[3,4-c]azepin-6(10bH)-one [Example 47] | 0.3 nM |  | 20 nM |  | 100% | 0.575 nM | 6.1 nM |  |  |  |  | >120% |

Further lines, with some results ahead:

| EC50 [1, 5] | Emax ([1]; CHO-K1, read-out: Emax) | EC50 [2, 6] | Emax ([2]; CHO-K1, 5-HT2B, maximum functional response as percentage relative to the effect of serotonin, read-out: Emax) | Emax [2, 7] | Compound | EC50 [3] | Ki [4] | Emax ([1]; CHO-K1) | EC50 ([1]; EC50, 5-HT2C agonist activity) | EC50 ([2]; EC50, 5-HT2B agonist activity) | Emax ([2]; CHO-K1) | Emax [1] |
| --- | --- | --- | --- | --- | --- | --- | --- | --- | --- | --- | --- | --- |
| 1 nM | > 120% | 70 nM | 55% |  | COc1cccc(CN2C[C@H]3CNC(=O)c4ccccc4[C@@H]3C2)c1 (relative stereo) [Example 28, Trans-2-(3-methoxybenzyl)-1,2,3,3a,4,5-hexahydrobenzo[c]pyrrolo[3,4-e]azepin-6(10bH)-one] | 3.95 nM | 14 nM |  |  |  |  |  |
| 30 nM | 110% | > 10000 nM |  | inactive | O=C1NC[C@@H]2CN(Cc3ccccc3)C[C@H]2c2cccc(F)c21 (relative stereo) [Example 58, Trans-2-benzyl-7-fluoro-1,2,3,3a,4,5-hexahydrobenzo[e]pyrrolo[3,4-c]azepin-6(10bH)-one] | 29 nM | 31 nM |  |  |  |  |  |
| 100 nM | 120% | > 10000 nM |  | inactive | O=C1NC[C@@H]2CN(Cc3ccccc3)C[C@@H]2c2cccc(F)c21 (relative stereo) [Example 59, Cis-2-benzyl-7-fluoro-1,2,3,3a,4,5-hexahydrobenzo[c]pyrrolo[3,4-e]azepin-6(10bH)-one] | 115 nM | 210 nM |  |  |  |  |  |
| 20 nM | 120% | > 10000 nM |  | inactive | O=C1NC[C@@H]2CN(Cc3ccccc3)C[C@H]2c2c(F)cccc21 (relative stereo) [Example 65, Trans-2-benzyl-10-fluoro-1,2,3,3a,4,5-hexahydrobenzo[c]pyrrolo[3,4-e]azepin-6(10bH)-one] | 20.2 nM | 53 nM |  |  |  |  |  |
| 7 nM | 120% | > 10000 nM |  | inactive | COC(=O)c1cccc(CN2C[C@H]3CNC(=O)c4ccccc4[C@@H]3C2)c1 (relative stereo) [Example 68, Trans-methyl-3-((6-oxo-1,3a,4,5,6,10b-hexahydrobenzo[e]pyrrolo[3,4-c]azepin-2(3H)-yl)methyl)benzoate] | 3.97 nM | 10 nM |  |  |  |  |  |
